Experimental findings from paper PMC5218480 (PLoS ONE, 2017) are described below.

The experiment concerns MV-4-11 cells. As to the kind of experiment: Gene expression microarray analysis (Affymetrix PrimeView) and GSEA. The following applies: ProbeSet 11739263_x_at; LIST D. In kind it is cell-based, human. On the set-up: RFU PODN (11730768_x_at) / Fold change /veh PODN (11730768_x_at) / RFU LINC00158 (11744669_a_at) / Fold change /veh LINC00158 (11744669_a_at) / RFU DUSP10 (11751237_a_at) / Fold change /veh DUSP10 (11751237_a_at) / RFU ID3 (11757404_x_at) / Fold change /veh ID3 (11757404_x_at) / RFU PLEKHG5 (11737974_s_at) / Fold change /veh PLEKHG5 (11737974_s_at) / RFU LRRC4B (11730491_at) / Fold change /veh LRRC4B (11730491_at) / RFU GIMAP4 (11747438_a_at) / Fold change /veh GIMAP4 (11747438_a_at) / RFU KRT8 (11758183_x_at) / Fold change /veh KRT8 (11758183_x_at) / RFU CNN1 (11734310_a_at) / Fold change /veh CNN1 (11734310_a_at) / RFU VPS37D (11726825_at) / Fold change /veh VPS37D (11726825_at) / RFU C10orf10 (11716522_x_at) / Fold change /veh C10orf10 (11716522_x_at) / RFU KIR2DL2 /// KIR2DL4 /// KIR2DL5A /// KIR2DL5B /// KIR2DS1 /// KIR2DS2 /// KIR2DS3 /// KIR2DS4 /// KIR3DL3 /// KIR3DL3 /// KIR3DS1 (11738374_at) / Fold change /veh KIR2DL2 /// KIR2DL4 /// KIR2DL5A /// KIR2DL5B /// KIR2DS1 /// KIR2DS2 /// KIR2DS3 /// KIR2DS4 /// KIR3DL3 /// KIR3DL3 /// KIR3DS1 (11738374_at) / RFU C1QL1 (11718748_at) / Fold change /veh C1QL1 (11718748_at) / RFU TMPRSS4 (11747572_a_at) / Fold change /veh TMPRSS4 (11747572_a_at) / RFU HAMP (11756126_x_at) / Fold change /veh HAMP (11756126_x_at) / RFU RNFT2 (11725882_a_at) / Fold change /veh RNFT2 (11725882_a_at) / RFU NR4A2 (11747474_a_at) / Fold change /veh NR4A2 (11747474_a_at) / RFU ABCC12 (11746883_a_at) / Fold change /veh ABCC12 (11746883_a_at) / RFU TMEM136 (11760407_x_at) / Fold change /veh TMEM136 (11760407_x_at) / RFU CLDN22 /// WWC2 (11732394_at) / Fold change /veh CLDN22 /// WWC2 (11732394_at) / RFU HLA-DPB1 (11760878_x_at) / Fold change /veh HLA-DPB1 (11760878_x_at) / RFU SPINT1 (11716480_a_at) / Fold change /veh SPINT1 (11716480_a_at) / RFU GAP43 (11754022_s_at) / Fold change /veh GAP43 (11754022_s_at) / RFU A4GNT (11735810_at) / Fold change /veh A4GNT (11735810_at) / RFU PRB3 (11715151_x_at) / Fold change /veh PRB3 (11715151_x_at) / RFU TUBB4B (11761932_at) / Fold change /veh TUBB4B (11761932_at) / RFU CAPN14 (11732068_a_at) / Fold change /veh CAPN14 (11732068_a_at) / RFU TMCC2 (11721928_a_at) / Fold change /veh TMCC2 (11721928_a_at) / RFU IRGQ (11745062_a_at) / Fold change /veh IRGQ (11745062_a_at) / RFU FAM174B (11720279_a_at) / Fold change /veh FAM174B (11720279_a_at) / RFU TMPRSS4 (11748680_a_at) / Fold change /veh TMPRSS4 (11748680_a_at) / RFU FAM212B (11763350_a_at) / Fold change /veh FAM212B (11763350_a_at) / RFU PLEKHG5 (11743358_a_at) / Fold change /veh PLEKHG5 (11743358_a_at) / RFU ZSCAN30 (11745921_a_at) / Fold change /veh ZSCAN30 (11745921_a_at) / RFU CMKLR1 (11741424_a_at) / Fold change /veh CMKLR1 (11741424_a_at) / RFU LOC101060620 /// MAPK8IP1 (11723275_at) / Fold change /veh LOC101060620 /// MAPK8IP1 (11723275_at) / RFU SPTSSB (11747773_x_at) / Fold change /veh SPTSSB (11747773_x_at) / RFU PRSS12 (11739890_at) / Fold change /veh PRSS12 (11739890_at) / RFU BIN1 (11741810_x_at) / Fold change /veh BIN1 (11741810_x_at) / RFU WNT11 (11732464_a_at) / Fold change /veh WNT11 (11732464_a_at) / RFU C10orf10 (11716521_a_at) / Fold change /veh C10orf10 (11716521_a_at) / RFU C5orf56 (11738089_at) / Fold change /veh C5orf56 (11738089_at) / RFU CYB561 (11721691_x_at) / Fold change /veh CYB561 (11721691_x_at) / RFU ANKRD19P (11752326_a_at) / Fold change /veh ANKRD19P (11752326_a_at) / RFU OR2T12 /// OR2T33 /// OR2T8 (11738714_s_at) / Fold change /veh OR2T12 /// OR2T33 /// OR2T8 (11738714_s_at) / RFU VCAN (11748164_a_at) / Fold change /veh VCAN (11748164_a_at) / RFU JSRP1 (11732532_at) / Fold change /veh JSRP1 (11732532_at) / RFU KRTAP10-11 (11738290_x_at) / Fold change /veh KRTAP10-11 (11738290_x_at) / RFU MYO3A (11730013_a_at) / Fold change /veh MYO3A (11730013_a_at) / RFU EBF3 (11725865_a_at) / Fold change /veh EBF3 (11725865_a_at) / RFU CAMK2N1 (11719241_x_at) / Fold change /veh CAMK2N1 (11719241_x_at) / RFU C5orf56 (11738088_a_at) / Fold change /veh C5orf56 (11738088_a_at) / RFU OLFML3 (11715873_a_at) / Fold change /veh OLFML3 (11715873_a_at) / RFU LOC100653217 /// NTM (11731650_a_at) / Fold change /veh LOC100653217 /// NTM (11731650_a_at) / RFU MAPK11 (11762145_a_at) / Fold change /veh MAPK11 (11762145_a_at) / RFU FIZ1 (11724087_x_at) / Fold change /veh FIZ1 (11724087_x_at) / RFU OASL (11726364_x_at) / Fold change /veh OASL (11726364_x_at) / RFU SOX15 (11748057_x_at) / Fold change /veh SOX15 (11748057_x_at) / RFU CD79A (11719716_a_at) / Fold change /veh CD79A (11719716_a_at) / RFU HIST1H1D (11736915_at) / Fold change /veh HIST1H1D (11736915_at) / RFU CASKIN2 (11723855_a_at) / Fold change /veh CASKIN2 (11723855_a_at) / RFU LOC730098 (11760151_x_at) / Fold change /veh LOC730098 (11760151_x_at) / RFU OR4N2 (11742367_at) / Fold change /veh OR4N2 (11742367_at) / RFU PRRT2 (11749266_a_at) / Fold change /veh PRRT2 (11749266_a_at) / RFU SNX32 (11753110_a_at) / Fold change /veh SNX32 (11753110_a_at) / RFU CDHR5 (11726645_a_at) / Fold change /veh CDHR5 (11726645_a_at) / RFU RCAN1 (11760418_a_at) / Fold change /veh RCAN1 (11760418_a_at) / RFU FAM167A (11723789_a_at) / Fold change /veh FAM167A (11723789_a_at) / RFU FAM26E (11764081_at) / Fold change /veh FAM26E (11764081_at) / RFU ISYNA1 (11749810_s_at) / Fold change /veh ISYNA1 (11749810_s_at) / RFU ACY1 (11761880_at) / Fold change /veh ACY1 (11761880_at) / RFU 11764098_at / Fold change /veh 11764098_at / RFU SAMD14 (11745864_x_at) / Fold change /veh SAMD14 (11745864_x_at) / RFU NPB (11741838_a_at) / Fold change /veh NPB (11741838_a_at) / RFU TMPRSS6 (11731388_a_at) / Fold change /veh TMPRSS6 (11731388_a_at) / RFU KRTAP10-2 (11738614_at) / Fold change /veh KRTAP10-2 (11738614_at) / RFU ARHGAP8 /// PRR5-ARHGAP8 (11727945_x_at) / Fold change /veh ARHGAP8 /// PRR5-ARHGAP8 (11727945_x_at) / RFU KRTAP5-7 /// NADSYN1 (11734609_at) / Fold change /veh KRTAP5-7 /// NADSYN1 (11734609_at) / RFU RASL12 (11751679_a_at) / Fold change /veh RASL12 (11751679_a_at) / RFU CDKN2B (11736163_a_at) / Fold change /veh CDKN2B (11736163_a_at) / RFU PRF1 (11729649_at) / Fold change /veh PRF1 (11729649_at) / RFU, ZNF638 /// ZNF638-IT1 / Fold change vs veh, ZNF638 /// ZNF638-IT1 / RFU, PANK3 / Fold change vs veh, PANK3 / RFU, SH3YL1 / Fold change vs veh, SH3YL1 / RFU, ZEB2 / Fold change vs veh, ZEB2 / RFU, NRIP1 / Fold change vs veh, NRIP1 / RFU, PTTG1IP / Fold change vs veh, PTTG1IP / RFU, CAPN2 / Fold change vs veh, CAPN2 / RFU, MED14 / Fold change vs veh, MED14 / RFU, SNORA58 / Fold change vs veh, SNORA58 / RFU, C1orf63 / Fold change vs veh, C1orf63 / RFU, LRRFIP1 / Fold change vs veh, LRRFIP1 / RFU, NDUFAF7 / Fold change vs veh, NDUFAF7 / RFU, SLC12A2 / Fold change vs veh, SLC12A2 / RFU, IBTK / Fold change vs veh, IBTK / RFU, ESF1 / Fold change vs veh, ESF1 / Fold change vs veh, TMEM50B / RFU, TAOK1 / Fold change vs veh, TAOK1 / RFU, ACBD3 / Fold change vs veh, ACBD3 / RFU, TMA16 / Fold change vs veh, TMA16 / RFU, RWDD3 / Fold change vs veh, RWDD3 / RFU, BCAT1 / Fold change vs veh, BCAT1 / RFU, EDEM3 / Fold change vs veh, EDEM3 / RFU, TMEM33 / Fold change vs veh, TMEM33 / RFU, WDR75 / Fold change vs veh, WDR75 / RFU, AHCTF1 / Fold change vs veh, AHCTF1 / RFU, TFRC / Fold change vs veh, TFRC / RFU, ZDHHC17 / Fold change vs veh, ZDHHC17 / RFU, NOM1 / Fold change vs veh, NOM1 / RFU, ARL8B / Fold change vs veh, ARL8B / RFU, ZBTB11 / Fold change vs veh, ZBTB11 / RFU, TAMM41 / Fold change vs veh, TAMM41 / RFU, KIAA1704 /// LOC100996395 / Fold change vs veh, KIAA1704 /// LOC100996395 / RFU, ING1 / Fold change vs veh, ING1 / RFU, TRMT61B / Fold change vs veh, TRMT61B / RFU, FUBP3 / Fold change vs veh, FUBP3 / RFU, TP53 / Fold change vs veh, TP53 / RFU, TNKS2 / Fold change vs veh, TNKS2 / RFU, ZFP14 / Fold change vs veh, ZFP14 / RFU, ACTR2 / Fold change vs veh, ACTR2 / RFU, PPP3R1 / Fold change vs veh, PPP3R1 / RFU, PIK3R1 / Fold change vs veh, PIK3R1 / RFU, HNRNPA1 / Fold change vs veh, HNRNPA1 / RFU, RNF170 / Fold change vs veh, RNF170 / RFU, ZNF28 / Fold change vs veh, ZNF28 / RFU, RNGTT / Fold change vs veh, RNGTT / RFU, OGT / Fold change vs veh, OGT / RFU, BRD1 / Fold change vs veh, BRD1 / RFU, MARS / Fold change vs veh, MARS / RFU, ZNF655 / Fold change vs veh, ZNF655 / RFU, FAHD1 / Fold change vs veh, FAHD1 / RFU, BDP1 / Fold change vs veh, BDP1 / RFU, LRRCC1 / Fold change vs veh, LRRCC1 / RFU, ARID1A / Fold change vs veh, ARID1A / RFU, ZNF146 / Fold change vs veh, ZNF146 / RFU, ZNF330 / Fold change vs veh, ZNF330 / RFU, GPN3 / Fold change vs veh, GPN3 / RFU, C9orf123 / Fold change vs veh, C9orf123 / RFU, N4BP2L2 / Fold change vs veh, N4BP2L2 / RFU, ARFIP1 / Fold change vs veh, ARFIP1 / RFU, FAM179B / Fold change vs veh, FAM179B / RFU, BCL10 / Fold change vs veh, BCL10 / RFU, UHRF1BP1L / Fold change vs veh, UHRF1BP1L / RFU, BET1 / Fold change vs veh, BET1 / RFU, CNOT2 / Fold change vs veh, CNOT2 / RFU, ZNF268 / Fold change vs veh, ZNF268 / Fold change vs veh, ZNF507 / RFU, DGCR2 / Fold change vs veh, DGCR2 / RFU, WDSUB1 / Fold change vs veh, WDSUB1 / Fold change vs veh, HSP90B1 /// MIR3652 / RFU, ADSS / Fold change vs veh, ADSS / RFU, GK / Fold change vs veh, GK / RFU, ZNF148 / Fold change vs veh, ZNF148 / RFU, TAF9 / Fold change vs veh, TAF9 / RFU, SLC1A5 / Fold change vs veh, SLC1A5 / RFU, SLMO2 / Fold change vs veh, SLMO2 / RFU, ABCC4 / Fold change vs veh, ABCC4 / RFU, LOC101060439 /// RAP1B / Fold change vs veh, LOC101060439 /// RAP1B / RFU, RFX7 / Fold change vs veh, RFX7 / RFU, GTPBP10 / Fold change vs veh, GTPBP10 / RFU, CNEP1R1 / Fold change vs veh, CNEP1R1 / RFU, BIVM-ERCC5 /// ERCC5 / Fold change vs veh, BIVM-ERCC5 /// ERCC5 / RFU, ILF3 / Fold change vs veh, ILF3 / RFU 11762660_at / Fold change /veh 11762660_at / RFU VCAN (11757783_s_at) / Fold change /veh VCAN (11757783_s_at) / RFU DDX43 (11728927_at) / Fold change /veh DDX43 (11728927_at) / RFU KRT8 (11758188_x_at) / Fold change /veh KRT8 (11758188_x_at) / RFU NKD1 (11759106_at) / Fold change /veh NKD1 (11759106_at) / RFU SRD5A1 (11742802_a_at) / Fold change /veh SRD5A1 (11742802_a_at) / RFU TPSAB1 /// TPSB2 (11721975_s_at) / Fold change /veh TPSAB1 /// TPSB2 (11721975_s_at) / RFU GSTM3 (11746129_a_at) / Fold change /veh GSTM3 (11746129_a_at) / RFU IL23R (11737362_x_at) / Fold change /veh IL23R (11737362_x_at) / RFU TMEM51 (11727254_a_at) / Fold change /veh TMEM51 (11727254_a_at) / RFU PIWIL2 (11732686_x_at) / Fold change /veh PIWIL2 (11732686_x_at) / RFU ORM1 (11744905_x_at) / Fold change /veh ORM1 (11744905_x_at) / RFU CCDC152 (11743942_at) / Fold change /veh CCDC152 (11743942_at) / RFU ECM1 (11717891_a_at) / Fold change /veh ECM1 (11717891_a_at) / RFU IL23R (11748794_a_at) / Fold change /veh IL23R (11748794_a_at) / RFU TNFAIP8L3 (11732012_x_at) / Fold change /veh TNFAIP8L3 (11732012_x_at) / RFU MBOAT4 (11741988_at) / Fold change /veh MBOAT4 (11741988_at) / RFU 11764193_at / Fold change /veh 11764193_at / RFU TMEM53 (11763286_at) / Fold change /veh TMEM53 (11763286_at) / RFU MAGEB2 (11727129_at) / Fold change /veh MAGEB2 (11727129_at) / RFU TMEM200A (11744735_a_at) / Fold change /veh TMEM200A (11744735_a_at) / RFU CCDC152 (11751479_a_at) / Fold change /veh CCDC152 (11751479_a_at) / RFU FAM211A (11726209_a_at) / Fold change /veh FAM211A (11726209_a_at) / RFU RGS16 (11746705_a_at) / Fold change /veh RGS16 (11746705_a_at) / RFU VCAN (11755009_s_at) / Fold change /veh VCAN (11755009_s_at) / RFU RHOB (11743442_s_at) / Fold change /veh RHOB (11743442_s_at) / RFU RGS16 (11720943_a_at) / Fold change /veh RGS16 (11720943_a_at) / RFU RGS16 (11720944_at) / Fold change /veh RGS16 (11720944_at) / RFU, VPS4B / Fold change vs veh, VPS4B / RFU, CREB1 / Fold change vs veh, CREB1 / RFU, DNAJC13 / Fold change vs veh, DNAJC13 / RFU, GNAQ / Fold change vs veh, GNAQ / RFU, CDK5R1 / Fold change vs veh, CDK5R1 / RFU, ZRANB3 / Fold change vs veh, ZRANB3 / RFU, CUL4A / Fold change vs veh, CUL4A / RFU, CCNY / Fold change vs veh, CCNY / RFU, UFL1 / Fold change vs veh, UFL1 / RFU, COG3 / Fold change vs veh, COG3 / RFU, DIAPH2 / Fold change vs veh, DIAPH2 / RFU, SKA2 / Fold change vs veh, SKA2 / RFU, AFF3 / Fold change vs veh, AFF3 / RFU, LMF1 / Fold change vs veh, LMF1 / RFU, IPO11 / Fold change vs veh, IPO11 / RFU, DFFB / Fold change vs veh, DFFB / RFU, FOXP1 / Fold change vs veh, FOXP1 / RFU, CARD8 / Fold change vs veh, CARD8 / RFU, STRN3 / Fold change vs veh, STRN3 / RFU, ADK / Fold change vs veh, ADK / RFU, RASSF2 / Fold change vs veh, RASSF2 / RFU, WIPF1 / Fold change vs veh, WIPF1 / RFU, LARP1B / Fold change vs veh, LARP1B / RFU, RASA1 / Fold change vs veh, RASA1 / RFU, RB1 / Fold change vs veh, RB1 / RFU, PPFIA1 / Fold change vs veh, PPFIA1 / RFU, MAT2A / Fold change vs veh, MAT2A / RFU, CCT5 / Fold change vs veh, CCT5 / RFU, WDR92 / Fold change vs veh, WDR92 / RFU, CUX1 / Fold change vs veh, CUX1 / RFU, TTC7A / Fold change vs veh, TTC7A / RFU, TMEM135 / Fold change vs veh, TMEM135 / RFU, DEPTOR / Fold change vs veh, DEPTOR / RFU, CPM / Fold change vs veh, CPM / RFU, DNAJB6 / Fold change vs veh, DNAJB6 / RFU, CACNA2D3 / Fold change vs veh, CACNA2D3 / RFU, DTX4 / Fold change vs veh, DTX4 / RFU, TFCP2 / Fold change vs veh, TFCP2 / RFU, GMCL1 /// GMCL1P1 / Fold change vs veh, GMCL1 /// GMCL1P1 / RFU, AEBP2 / Fold change vs veh, AEBP2 / RFU, SNHG1 /// SNORD22 /// SNORD25 /// SNORD26 /// SNORD27 /// SNORD28 /// SNORD29 /// SNORD31 / Fold change vs veh, SNHG1 /// SNORD22 /// SNORD25 /// SNORD26 /// SNORD27 /// SNORD28 /// SNORD29 /// SNORD31 / Fold change (Aza/veh), C12orf56 (ProbeSet 11735607_a_at) / Fold change (ACY-1035/veh), C12orf56 (ProbeSet 11735607_a_at) / Fold change (Aza/veh), FGFR1OP (ProbeSet 11751329_s_at) / Fold change (ACY-1035/veh), FGFR1OP (ProbeSet 11751329_s_at) / Fold change (Aza/veh), VPS36 (ProbeSet 11739960_a_at) / Fold change (ACY-1035/veh), VPS36 (ProbeSet 11739960_a_at) / RFU SYPL1 (11715823_x_at) / Fold change /veh SYPL1 (11715823_x_at) / RFU IGFBP7 (11715501_s_at) / Fold change /veh IGFBP7 (11715501_s_at) / RFU REEP3 (11722064_at) / Fold change /veh REEP3 (11722064_at) / RFU IGLL1 (11728026_x_at) / Fold change /veh IGLL1 (11728026_x_at): dose or concentration left out as unconfirmed.

For the compound `Nc1ncn([C@@H]2O[C@H](CO)[C@@H](O)[C@H]2O)c(=O)n1` [azacitidine], the “Fold change vs veh, VPS4B” value worked out at 0.80.
